Experimental data as given in patent publication US12409189B2, “STAUFEN1 agents and associated methods” (University of Utah Research Foundation, priority 2016, dated 2025).
“Also recorded” adds a separate entry of the source. d = 2'-deoxy (DNA); r = 2'-OH (RNA)

How the values were obtained:
Type in all cases: cell-based, human
STAU1 = assay: Sodium arsenite-induced stress, STAU1 immunoblotting in fibroblasts
From the text: Cell culture and Transfections. Four normal skin fibroblasts (ATXN2 with CAG22) and five SCA2 patient-derived skin FBs (ATXN2 with CAG repeats; 35, 35, 35, 42, and 45), were maintained in DMEM medium containing 10% fetal bovine serum. Two normal (ATXN2 with CAG22) and three SCA2 patient-derived (ATXN2 with expanded CAG repeats; 40, 46 and 52) Epstein-Barr virus (EBV)-immortalized LBCs were maintained in RPMI medium containing 15% fetal bovine serum. All subjects gave written consent and all procedures were approved by the Institutional Review Board at the University of Utah. The following primary human fibroblasts were obtained from the Coriell Cell Repositories (Camden, NJ, USA): ALS patient (TDP-43G298S mutation)(ND32947), Huntington disease (HD) patient (ND33392) and SCA3 (Machado-Joseph disease, MJD) patient (GM06153). TDP-43G298S, HD, SCA3, and SH-SY5Y cells were maintained in DMEM medium containing 10% fetal bovine serum.
(§1) Preparation of protein lysates and western blot analyses. Cellular extracts were prepared by a single-step lysis method. […] Signals were detected by using the Immobilon Western Chemiluminescent HRP Substrate (Millipore Inc., USA; cat #WBKLSO100) according to the manufacturer's protocol. The intensity of proteins was determined by using the ImageJ software analyses system and the relative protein abundances were expressed as ratios to β-actin.

[1] = test system: autophagic pathway proteins (mTOR, P-mTOR, p62, LC3-II); assay: Western blot of autophagic pathway proteins in SH-SY5Y and ATXN2-Q22/58 knock-in cells; conditions: for autophagic pathway proteins: ATXN2-Q22/58 knock-in cells, RNAi transfection
Description: (§2) SH-SY5Y cells were cultured in standard DMEM with 10% FBS and 1X penicillin/streptomycin in 5% CO2. Transfection of STAU1 siRNA or STAU1 ASO was accomplished using Lipofectamine transfection reagent using standard conditions. Cells were harvested 3-5 days post transfection.
Protein extracts were prepared by suspending cell pellets in SDS-PAGE sample buffer (Laemmli sample buffer) followed by boiling for 5 min. Equal amount of the extracts were subjected to Western blot analysis to determine the steady-state levels of proteins using the indicated antibodies. Protein extracts were resolved by SDS-PAGE and transferred to Hybond P membranes (Amersham Bioscience Inc., USA). After blocking with 5% skim milk in 0.1% Tween 20/PBS, the membranes were incubated with primary antibodies in 5% skim milk in 0.1% Tween 20/PBS for 2 hrs at room temperature or overnight at 4° C. After several washes with 0.1% Tween 20/PBS, the membranes were incubated with the corresponding secondary antibodies conjugated with HRP in 5% skim milk in 0.1% Tween 20/PBS for 2 hrs at room temperature. Following three additional washes with 0.1% Tween 20/PBS, signals were detected by using the Immobilon Western Chemiluminescent HRP Substrate (Millipore Inc., USA; cat #WBKLSO100) according to the manufacturer's protocol. […] Secondary antibodies were horse anti-mouse IgG-HRP antibody (Vector laboratories, PI-2000), and goat anti-rabbit IgG-HRP antibody (Vector laboratories, PI-1000).
(§3) For over-expression of recombinant proteins, SH-SY5Y cells were seeded on 100 mm or 6 well dishes and incubated overnight. The cells were then transfected with plasmid DNAs and harvested 48 hrs post-transfection and processed as two aliquots for protein and RNA analyses. For siRNA experiments, cells were transfected with siRNAs using lipofectamine 2000, and lymphoblastoid B cells (1×10^6) were electroporated with siRNAs using the Neon transfection system (Invitrogen Inc., USA) according to the manufacturer's protocol and seeded on 6 well plates.
Preparation of protein lysates and western blot analyses. Cellular extracts were prepared by a single-step lysis method. […] Equal amounts of the extracts were used for western blot analyses. […] Only supernatants were used for western blotting. Protein extracts were resolved by SDS-PAGE and transferred to Hybond P membranes (Amersham Bioscience Inc., USA). After blocking with 5% skim milk in 0.1% Tween 20/PBS, the membranes were processed for immunostaining using corresponding primary and secondary antibodies. Signals were detected by using the Immobilon Western Chemiluminescent HRP Substrate (Millipore Inc., USA; cat #WBKLSO100) according to the manufacturer's protocol. The intensity of proteins was determined by using the ImageJ software analyses system and the relative protein abundances were expressed as ratios to β-actin.

ATXN2 transcript = assay: qPCR of ATXN2 transcript in LB cells after Staufen1 silencing; conditions: normal or SCA2-LB cells, Staufen1 siRNA
From the text: (§4) The siRNAs used in this study were: All Star Negative Control siRNA (Qiagen Inc., USA; Cat #1027280), siATXN2 [Hs_ATXN2_2, (Qiagen Inc., USA; Cat #SI00308196), human siSTAU1: 5′-CCUAUAACUACAACAUGAGdTdT-3′ (SEQ ID NO: 3) and mouse siStau1: 5′-CAACUGUACUACCUUUCCAdTdT-3′ (SEQ ID NO: 31). Staufen1 siRNA oligonucleotides were synthesized by Invitrogen Inc., USA. The oligonucleotides were deprotected and the complementary strands were annealed.
as §3
(§5) RNA expression analyses by Quantitative RT-PCR. […] Quantitative RT-PCR was performed in QuantStudio 12K (Life Technologies, Inc.; USA) with the Power SYBR Green PCRMaster Mix (Applied Biosystems Inc.; USA). […] The threshold cycle for each sample was chosen from the linear range and converted to a starting quantity by interpolation from a standard curve run on the same plate for each set of primers. […]

PCP2 mRNA = assay: qPCR of PCP2 transcript in LB cells and SCA2 fibroblasts after siRNA; conditions: Staufen1 siRNA
From the text: as §4, §3, §5

ATXN2 = assay: Western blot of ATXN2 in ATXN2-Q22/58 KI cells after RNAi
Description: as §2
Protein extracts were prepared by suspending cell pellets in SDS-PAGE sample buffer (Laemmli sample buffer) followed by boiling for 5 min. Equal amount of the extracts were subjected to Western blot analysis to determine the steady-state levels of proteins using the indicated antibodies. Protein extracts were resolved by SDS-PAGE and transferred to Hybond P membranes (Amersham Bioscience Inc., USA). […] Following three additional washes with 0.1% Tween 20/PBS, signals were detected by using the Immobilon Western Chemiluminescent HRP Substrate (Millipore Inc., USA; cat #WBKLSO100) according to the manufacturer's protocol. […]
as §1, with “analyses.” for “analyses. Cellular extracts were prepared by a single-step lysis method.”

Staufen1 [2] = assay: Western blot of Staufen1 in normal and SCA2 LB cells and SCA2 fibroblasts after siRNA; conditions: siRNA electroporation, 4 days
From the text: as §4, §3
as §1, with “analyses.” for “analyses. Cellular extracts were prepared by a single-step lysis method.”

Staufen1 [3] = assay: Cycloheximide (CHX)-chase assay, Staufen1 protein stability, western blot
Description: (§6) To identify the underlying mechanism of ATXN2 polyQ expansion-mediated Staufen1 abundance, Staufen1 transcript levels were examined in normal and SCA2 fibroblasts. […] To test this, comparative protein stability for Staufen1 was measured by cycloheximide (CHX)-chase assay in normal and SCA2 fibroblasts. Relative Staufen1 levels were analyzed from harvested normal and SCA2 fibroblast extracts. (FIGS. 4B and 4C).
(§7) Preparation of protein lysates and western blot analyses. Cellular extracts were prepared by a single-step lysis method. The harvested cells were suspended in SDS-PAGE sample buffer [Laemmli sample buffer (Bio-Rad Inc.; cat #161-0737)] and then boiled for 5 min. Equal amounts of the extracts were used for western blot analyses. Cerebellar protein extracts were prepared by homogenization of mouse cerebella in extraction buffer [25 mM Tris-HCl pH 7.6, 300 mM NaCl, 0.5% Nonidet P-40, 2 mM EDTA, 2 mM MgCl2, 0.5 M urea and protease inhibitors (Sigma Inc.; cat #P-8340)] followed by centrifugation at 4° C. for 20 min at 14,000 RPM. […] Signals were detected by using the Immobilon Western Chemiluminescent HRP Substrate (Millipore Inc., USA; cat #WBKLSO100) according to the manufacturer's protocol. The intensity of proteins was determined by using the ImageJ software analyses system and the relative protein abundances were expressed as ratios to β-actin.

p21 Waf1/Cip1 = assay: Cycloheximide (CHX)-chase assay, p21 Waf1/Cip1 control, western blot; conditions: 4 hr after CHX treatment (25 μg/ml), both normal and SCA2 fibroblasts
Description: as §6, §7

Staufen1 [4] = assay: Western blot of Staufen1 in SH-SY5Y and ATXN2-Q22/58 knock-in cells; conditions: for STAU1 levels, expression relative to actin: SH-SY5Y-ATXN2 [Q22/Q22] cells, ASO at the indicated dose, western blotting
Description: as §2
Protein extracts were prepared by suspending cell pellets in SDS-PAGE sample buffer (Laemmli sample buffer) followed by boiling for 5 min. Equal amount of the extracts were subjected to Western blot analysis to determine the steady-state levels of proteins using the indicated antibodies. Protein extracts were resolved by SDS-PAGE and transferred to Hybond P membranes (Amersham Bioscience Inc., USA). After blocking with 5% skim milk in 0.1% Tween 20/PBS, the membranes were incubated with primary antibodies in 5% skim milk in 0.1% Tween 20/PBS for 2 hrs at room temperature or overnight at 4° C. After several washes with 0.1% Tween 20/PBS, the membranes were incubated with the corresponding secondary antibodies conjugated with HRP in 5% skim milk in 0.1% Tween 20/PBS for 2 hrs at room temperature. Following three additional washes with 0.1% Tween 20/PBS, signals were detected by using the Immobilon Western Chemiluminescent HRP Substrate (Millipore Inc., USA; cat #WBKLSO100) according to the manufacturer's protocol. The antibodies used included ATXN2 mAb [(1:3000), BD Biosciences Inc.; cat #611378], rabbit anti-Staufen antibody (Novus biologicals Inc., NBP1-33202), SQSTM1/p62 antibody (Cell signaling, #5114), LC3B Antibody (Novus biologicals Inc., NB100-2220), mTOR antibody (Cell signaling, #2972), Phospho-mTOR (Ser2448) antibody (Cell signaling #2971), β-Actin mAb conjugated with HRP [(1:10,000), Sigma Inc.; cat #A3858]. Secondary antibodies were horse anti-mouse IgG-HRP antibody (Vector laboratories, PI-2000), and goat anti-rabbit IgG-HRP antibody (Vector laboratories, PI-1000).
as §3
as §1, with “analyses.” for “analyses. Cellular extracts were prepared by a single-step lysis method.”

[5] = SH-SY5Y and ATXN2-Q22/58 knock-in cells, Baf dose-wise, 6 h, vs untreated

O=[As]O [sodium arsenite] was tested, and the “STAU1 level in response to arsenite” value (STAU1; HD and SCA3 patient fibroblasts, 1.0 mM, 0, 3 and 6 hr) was “early and exaggerated responses; also recorded: exaggerated increases in STAU1 levels” and the “STAU1 level in response to arsenite” value (STAU1; normal fibroblasts (implied), only visible after 6 hr treatment) was “modest STAU1 increase”.

In the case of “5′-CCUAUAACUACAACAUGAGdTdT-3′ (sense CCUAUAACUACAACAUGAGTT; sugars from the 5' end r19 d2, backbone not given here) [siSTAU1, siRNA directed against human Staufen1, synthesized by Invitrogen]”, the autophagic pathway proteins ([1]; listed as STAU1 RNAi) is reported as “restored autophagic pathway proteins”, the autophagic pathway proteins ([1]; listed as STAU1 siRNA) is reported as “restoration of autophagic pathway proteins” and the ATXN2 transcript levels (ATXN2 transcript) is reported as “does not show any effect on ATXN2 transcript levels”. The “PCP2 mRNA level” value (PCP2 mRNA; SCA2-LB (ATXN2-Q22/52) cells, qPCR) was “restored PCP2 mRNA level to a level similar to that seen in normal LB cells treated with control siRNA”, the “PCP2 mRNA levels” value (PCP2 mRNA; normal LB cells, vs control siRNA) was “did not show significant alteration of PCP2 mRNA levels” and the ATXN2 steady-state levels (ATXN2; listed as STAU1-RNAi) was “did not change ATXN2 levels”. For the same compound, the ATXN2 steady-state levels (ATXN2; listed as STAU1 siRNA) was “without affecting ATXN2 steady-state levels”, the “depletion of Staufen1” value (Staufen1 [2]; SCA2-LB (ATXN2-Q22/52) cells) was ~83% and the “silencing of staufen1” value (Staufen1 [2]; normal LB cells) was ~81%.

C[C@@H]1C[C@@H]([C@H](O)CC2CC(=O)NC(=O)C2)C(=O)[C@@H](C)C1 [CHX, cycloheximide] was tested, and the “Staufen1 protein expression levels” value (Staufen1 [3]; SCA2 fibroblasts, CHX treatment) was “relatively little decrease”, the Staufen1 levels (Staufen1 [3]; normal fibroblasts, 4 hr after CHX treatment) was “reduced” and the “reduction of p21 Waf1/Cip1 levels” value (p21 Waf1/Cip1) was ~90%.

“5′-TCTCATGTTGTAGTTATAGG-3′ (listed as DNA, chemistry not given here; listed as Homo sapiens) [STAU1 ASO-A, antisense oligonucleotide targeting Staufen1]” was tested, and the “STAU1 levels, expression relative to actin” value (Staufen1 [4]) was “reduced STAU1 levels”.

For “5′-CTGGAAAGATAGTCCAGTTG-3′ (listed as DNA, chemistry not given here; listed as Homo sapiens) [STAU1 ASO-B, antisense oligonucleotide targeting Staufen1]”, the “STAU1 levels, expression relative to actin” value (Staufen1 [4]) was “reduced STAU1 levels”.

CO/C1=C\C(C)=C\[C@@H](C)[C@@H](O)[C@@H](C)C/C(C)=C/C=C/[C@H](OC)[C@@H]([C@@H](C)[C@@H](O)[C@H](C)[C@@]2(O)C[C@@H](O)[C@H](C)[C@@H](C(C)C)O2)OC1=O [Bafilomycin Al, bafilomycin Al, reference compound] was tested, and the LC3-II level ([1]; ATXN2-Q22/58 KI cells, Baf treatment) was “slight elevation of LC3-II”, the “processed LC3-II and p62 levels” value [1, 5] was “dose-wise increased levels” and the “Staufen1 levels / clearance” value (Staufen1 [4]; [5]) was “dose-wise increased levels; also recorded: lowers Staufen1 clearance”.
